According to paper PMC7767381, “Exploring the Anti-Cancer Mechanism of Novel 3,4′-Substituted Diaryl Guanidinium Derivatives” (Pharmaceuticals, 2020):
“Also recorded” adds a separate entry of the source. Counter-ions that a name gives are not always drawn. Like-named read-outs stand apart in the source and are kept apart here.

What was measured:
HKH-2 cells = assay: alamarBlue cell viability assay, HKH-2; assay type: cell-based; details: Homo sapiens, 72 h, mutated KRas disrupted, read-out: HKH-2 IC50 ± SEM
Text: (§1) Cell viability and proliferation assays were used to evaluate the in vitro cytotoxicity of all synthesised compounds in a variety of different cancer cell lines using the alamarBlue® viability assay and the results are presented in Table 1 and Table 2. The sensitivity of cancer cells to drugs can often be compromised by PIK3CA, Ras and BRAF mutations. To determine whether such mutations are critical to the efficacy of our new compounds we tested them in a range of cancerous cell lines expressing different mutations. Firstly, we used the HL-60 (human promyelocytic leukaemia, NRas mutated) cell line for general cytotoxicity screening of all compounds. […] Lastly, toxicity against MCF-10A, which is a non-tumorigenic epithelial cell line, was also assessed for one of the most promising compounds (4). The graphs representing the viability results with the HL-60, MCF-7, HeLa, HCT-116, and HKH-2 cancer cell lines for compound 1 and derivatives 2, 3, and 4 are shown in Figures S7–S10 (ESI).
(§2) Cells were counted and seeded in 96-well plates at a density of 2 × 10^5 cells/mL for HL-60, 2.5 × 10^4 cells/mL for MCF-7, MCF10A and HeLa, 1 × 10^5 cells/mL for HCT116 and HKH-2, all of them in their respective media. The 96-well plates were then treated with a 1:100 dilution of stock concentrations of drugs or EtOH (1% v/v)/DMSO (0.1% v/v) as vehicle control in triplicate. Three blank wells containing 200 µL RPMI with no cells were also set-up as blanks. After a 72 h incubation, 20 µL of alamarBlue was added to each well. The plates were incubated in darkness at 37 °C for 4–5 h using a Molecular Devices microplate reader, the fluorescence (F) was then read at an excitation wavelength of 544 nm and an emission wavelength of 590 nm. Cell viability was then determined by subtracting the mean blank fluorescence (Fb) from the treated sample fluorescence (Fs) and expressing this as a percentage of the fluorescence of the blanked vehicle control (Fc). […] The results were then plotted as a nonlinear regression, sigmoidal dose-response curves on Prism, from which the IC50 value for each drug was determined.
(§3) The MCF-7 (human breast tumour) cell line was obtained from Prof. Mary Meegan, School of Pharmacy, TCD. It was maintained in Roswell Park Memorial Institute (RPMI) 1640 medium with stable glutamate (GlutaMax I) supplemented with 10% (v/v) fetal bovine serum (FBS), 1% (v/v) penicillin/ streptomycin (pen-strep) and 2 mM L-glutamine.
(§4) The HeLa (human epitheloid cervix carcinoma) cell line was obtained from Prof. Thorfinnur Gunnlaugsson, School of Chemistry TCD. It was maintainedin Dulbecco's Modified Eagle's Medium (DMEM) supplemented with 10% (v/v) fetal bovine serum (FBS) and 1%(v/v) penicillin/ streptomycin (pen-strep).
(§5) The HCT116and HKH-2 (human colon cancer cells) cell lines were obtained from Prof. James Murray, School of Biochemistry and Immunology TCD. They were maintainedin Dulbecco's Modified Eagle's Medium (DMEM) supplemented with 10% (v/v) fetal bovine serum (FBS), 1% (v/v) penicillin/ streptomycin (pen-strep), 1% (v/v) sodium pyruvate (NaPyr), 1% (v/v) L-glutamine (L-Glu) and, only for HKH-2, 0.6 mg/mL geneticine (G418).
(§6) MCF-10A (human breast epithelial) cell line was obtained from Prof. Mary Meegan, School of Pharmacy, TCD. […]
(§7) Cells were counted and seeded in 96 well plates at a density of 2 × 10^5 cells/mL for HL-60, 2.5× 10^4 cells/mL for MCF-7, MCF10A and HeLa, 1 × 10^5 cells/mL for HCT116 and HKH-2, all of them in their respective media. […]

MCF-7 cells = assay: alamarBlue cell viability assay, MCF-7; assay type: cell-based; details: Homo sapiens, MCF7, 72 h, read-out: MCF-7 IC50 ± SEM
Text: as §1, §2, §3, §4, §5
MCF-10A (human breast epithelial) cell line was obtained from Prof. Mary Meegan, School of Pharmacy, TCD. It was cultured in Dulbecco’s Modified Eagle Medium/Nutrient Mixture F-12 (DMEM/F12; Gibco) supplemented with 5% horse serum (Invitrogen), 20 ng/mL epidermal growth factor (Merck Millipore), 0.5 μg/mL hydrocortisone (Sigma), 100 ng/mL cholera toxin (Sigma), 10 μg/mL insulin (Sigma), and penicillin/streptomycin (1% v/v) (Gibco).
(§8) 4.4. AlamarBlue ® Cell Viability Assay
as §7, with “media. The 96 well plates were then treated with a 1:100 dilution of stock concentrations of drugs or EtOH (1% v/v)/DMSO (0.1% v/v) as vehicle control in triplicate.” for “media.”

BRAF [1] = test system: BRAF; parameters: method as in PMID 24858546, PMID 26318998; details: in vitro; cited from earlier work
HeLa cells = assay: alamarBlue cell viability assay, HeLa; assay type: cell-based; details: Homo sapiens, 72 h, read-out: HeLa IC50 ± SEM
Text: as §1, §2, §3, §4, §5, §6, §7

HCT116 cells = assay: alamarBlue cell viability assay, HCT116; assay type: cell-based; details: Homo sapiens, HCT-116, 72 h, KRas mutant, read-out: HCT116 IC50 ± SEM
Text: as §1, §2, §3, §4, §5, §6, §7

HL-60 cells [2] = test system: HL-60 cells; parameters: method as in PMID 24858546; details: alamarBlue; previously tested compound; read-out: HL-60 IC50 ± SEM; cited from earlier work
BRAF [3] = test system: BRAF; parameters: method as in PMID 24858546, PMID 26318998; details: cited from earlier work
[4] = test system: ERK phosphorylation (MAPK/ERK pathway); assay: Western immunoblot of ERK phosphorylation in HL-60 extracts; assay type: cell-based, human; details: HL-60, 5 and 10 μM, 16 h
Protocol: Thus, using Western immunoblot analysis of HL-60 extracts, we investigated the expression and phosphorylation levels of ERK (as an indication of ERK activation), which is the downstream effector of the Ras/BRAF signalling pathway (Figure 6).
HL60s were seeded in T25 flasks at 50 × 10^4 cells/mL and cells were treated with either vehicle [0.5% EtOH (v/v)], 1–4, 9 or 52 (5 µM), as well as 1 (10 µM as reported). After 16 h, cells were collected and washed with PBS. Cell pellets were re-suspended in cold cell lysis buffer (radio-immunoprecipitation assay buffer) supplemented with 1% phosphatase inhibitor cocktail 2 and 3 (Sigma) and 10% protease inhibitor (Roche). Cells were lysed for 30 min on ice. Protein concentration was then determined by BCA assay. Lysates were boiled with Laemmli sample buffer [Tris-HCL 50 mM (pH 6.7), glycerol 10% (w/v), sodium dodecyl sulphate 2% (w/v), bromophenol blue 0.02% (w/v)] containing DTT […] for 10 min at 90 °C. Moreover, 20 µg of lysates were resolved by sodium dodecyl sulphate polyacrylamide gel electrophoresis (SDS-PAGE) and transferred onto PVDF transfer membrane (EMD Millipore). Membranes were blocked with 5% non-fat milk and probed with primary antibodies for ERK and phospho-ERK (Cell Signalling). Anti-GAPDH was used as a loading control (Calbiochem).
Figure 6 Western immunoblot of HL-60 cell extracts following incubation with compounds 2, 3, 4, 9, 52 and 1 (as a control). HL60 cells were seeded at 2 × 10^5 cells/mL and were treated with either vehicle [0.5% EtOH (v/v)], compounds 52, 2, 9, 3 and 4 (5 µM) or compound 1 (5 and (*) 10 µM, as in reference) for 16 h. Cells were lysed and equal amounts of protein were loaded and separated on 15% SDS-PAGE gels, transferred to PVDF membrane and probed with antibodies against total and phosphorylated ERK. Anti-GAPDH was used as a loading control. Results are representative of 2 independent experiments.
HL-60 cells were seeded in T25 flasks at 50 x10^4 cells/mL and treated with either vehicle [0.5% […]
After 16 hours, cells were […]
collected and washed with PBS. Cell pellets were re-suspended in cold cell lysis buffer (radio-immunoprecipitation assay buffer) supplemented with 1% phosphatase inhibitor cocktail 2 and 3 (Sigma) and 10% protease inhibitor (Roche). Cells were lysed for 30 minutes on ice.
Protein concentration was then determined by BCA assay. Lysates were boiled with laemmli sample buffer [Tris-HCL 50 mM (pH 6.7), glycerol 10% (w/v), sodium dodecyl sulphate 2% (w/v), bromophenol blue 0.02% (w/v)] containing DTT […] for 10 min. at 90 °C. Also 20 µg of lysates were resolved by sodium dodecyl sulphate polyacrylamide gel electrophoresis (SDS - PAGE) and transferred onto PVDF transfer membrane (EMD Millipore). Membranes were blocked with 5% non-fat milk and probed with primary antibodies for ERK and phospho-ERK (Cell Signaling). Anti-GAPDH was used as a loading control (Calbiochem).

HL-60 cells [5] = assay: alamarBlue cell viability assay, HL-60; assay type: cell-based; details: Homo sapiens, HL-60, 72 h, read-out: HL-60 IC50 ± SEM
Text: as §1
as §2, with “determined. […]” for “determined.”
Pharmacy, TCD. It was maintained in Roswell Park Memorial Institute (RPMI) 1640 medium with stable glutamate (GlutaMax I) supplemented with 10% (v/v) fetal bovine serum (FBS), 1% (v/v) penicillin/ streptomycin (pen-strep) and 2 mM L-glutamine. […]
as §8
Cells were counted and seeded in 96 well plates at a density of 2 × 10^5 cells/mL for HL-60, 2.5× 10^4 cells/mL for MCF-7, MCF10A and HeLa, 1 × 10^5 cells/mL for HCT116 and HKH-2, all of them in their respective media. The 96 well plates were then treated with a 1:100 dilution of stock concentrations of drugs or EtOH (1% v/v)/DMSO (0.1% v/v) as vehicle control in triplicate.
Three blank wells containing 200 µL media with no cells were also set-up as blanks. After a 72 h incubation, 20 µL of AlamarBlue was added to each well. The plates were incubated in darkness at 37 °C for 4-5 h. Using a Molecular Devices microplate reader, the fluorescence (F) was then read at an excitation wavelength of 544 nm and an emission wavelength of 590 nm.
Cell viability was then determined by subtracting the mean blank fluorescence (Fb) from the treated sample fluorescence (Fs) and expressing this as a percentage of the fluorescence of the blanked vehicle control (Fc). […] The results were […]
then plotted as a nonlinear regression, sigmoidal dose-response curves on Prism, from which the IC50 value for each drug was determined.
Fs − Fb x 100 = % Cell Viability
60 cell line in a dose-dependent manner.
(1 picture or pasted object on this page, not shown here)

For `N=C(N)Nc1ccc(Oc2cccc(NC(=N)Nc3ccc(Cl)c(C(F)(F)F)c3)c2)cc1` [Compound 1], the IC50 (HKH-2 cells) is given as 19.2 ± 0.84 µM, the IC50 (MCF-7 cells) is given as 9.3 ± 1.87 µM and the “BRAF activity in radiometric assay” value (BRAF [1]) is given as “inhibited in vitro”. For the same compound, the IC50 (HeLa cells) was 9.48 ± 0.16 µM, the IC50 (HCT116 cells) was 9.96 ± 0.6 µM and the IC50 (HL-60 cells [2]) was 9.72 ± 0.9 µM. For the same compound, the “inhibition of ATP binding to BRAF” value (BRAF [3]) was “did not inhibit ATP binding to BRAF” and the “effect on ERK phosphorylation (Ras/BRAF pathway)” value [4] was “inhibiting ERK phosphorylation; also recorded: abrogates ERK activation”.
`N=C(N)Oc1ccc(Oc2cccc(Nc3ccc(Cl)c(C(F)(F)F)c3)c2)cc1` [Compound 70, 4-(3-((4-Chloro-3-(trifluoromethyl)phenyl)amino)phenoxy)phenyl carbamimidate hydrochloride] showed an IC50 (MCF-7 cells) of 7.32 ± 0.35 µM and an IC50 (HL-60 cells [5]; alamarBlue, 72 h) of 4.22 ± 0.04 µM.
`CNC(=O)c1cc(Oc2ccc(NC(=O)Nc3ccc(Cl)c(C(F)(F)F)c3)cc2)ccn1` [Sorafenib, reference compound] gave an IC50 (HKH-2 cells) of 4.43 ± 0.39 µM, an IC50 (MCF-7 cells) of 3.07 ± 0.1 µM and an IC50 (HeLa cells) of 4.59 ± 0.45 µM. The IC50 (HL-60 cells [5]) was 2.53 ± 0.68 µM and the IC50 (HCT116 cells) was 6.79 ± 0.18 µM.
